Laboratory results published in patent US20250228242A1 (priority 2021, published 2025).
Where a name gives a salt, the structure may show the parent alone.

test system: P. infestans; assay: whole plant or invertebrate; type: in vivo; settings: Phytophthora infestans, in Solanum tuberosum, read-out: P. infestans % inhibition

Going from `Nc1ccc(-c2cc(-c3ccccc3F)no2)cc1` [Compound 45, 5-(4-Aminophenyl)-3-(2-fluorophenyl)-isoxazole] to `Clc1ccccc1-c1cc(-c2ccc(N3CCCCC3)cc2)on1` [Compound 91, 1-{4-[3-(2-Chlorophenyl)-1,2-oxazol-5-yl]phenyl}piperidine], the inhibition at 100 µM falls from 76% to 29%.

Compared with `CN1CCOc2cc(-c3nc(-c4cccc(N5CCOCC5)c4)no3)ccc21` [Compound 98, 4-Methyl-7-{3-[3-(morpholin-4-yl)phenyl]-1,2,4-oxadiazol-5-yl}-3,4-dihydro-2H-1,4-benzoxazine], `Cc1ccc(-c2n[nH]c(-c3cccc(N4CCCC4)c3)n2)cc1C` [Compound 156, 3-(3,4-Dimethylphenyl)-5-[3-(pyrrolidin-1-yl)phenyl]-1H-1,2,4-triazole] is higher in inhibition at 100 µM: 22% for the first, 25% for the second.

Compared with `COc1ccc(-c2noc(-c3cccc(Cl)c3)n2)cc1` [Compound 67, 5-(3-Chlorophenyl)-3-(4-methoxyphenyl)-1,2,4-oxadiazole], `CSc1ccc(-c2nc(-c3ccc(C(=O)O)cc3)no2)cc1` [Compound 96, 4-{5-[4-(Methylsulfanyl)phenyl]-1,2,4-oxadiazol-3-yl}benzoic acid] is lower in inhibition at 100 µM: 55% for the first, 4% for the second.

Going from `O=C(O)c1ccc(-c2n[nH]c(-c3ccc(Cl)cc3)n2)cc1` [Compound 56, 4-[5-(4-Chlorophenyl)-1H-1,2,4-triazol-3-yl]benzoic acid hydrochloride] to `COc1ccc(-c2n[nH]c(-c3cccc(NC(=O)[C@H](C)N)c3)n2)cc1` [Compound 140, (2S)-2-Amino-N-{3-[3-(4-methoxyphenyl)-1H-1,2,4-triazol-5-yl]phenyl}propenamide hydrochloride], the inhibition at 100 µM rises from 17% to 39%.

Going from `Oc1cc(-c2cc(-c3cccc(C(F)(F)F)c3)no2)ccc1Cl` [Compound 49, 5-(4-Chloro-3-hydroxyphenyl)-3-[3-(trifluoromethyl)phenyl]-isoxazole] to `O=C(O)c1cccc(-c2ncc(-c3ccc(C(F)(F)F)cc3O)o2)c1` [Compound 69, 3-{5-[2-Hydroxy-4-(trifluoromethyl)phenyl]-1,3-oxazol-2-yl}benzoic acid], the inhibition at 100 µM rises from 3% to 99%.

Going from `O=C(c1cccc(-c2nc(-c3cccc(F)c3)n[nH]2)c1)N1CCOCC1` [Compound 163, {3-[3-(3-Fluorophenyl)-1H-1,2,4-triazol-5-yl]phenyl}(morpholin-4-yl)methanone] to `COc1ccc(-c2n[nH]c(-c3cccc(N(C)C)c3)n2)cc1OC` [Compound 105, 3-[3-(3,4-Dimethoxyphenyl)-1H-1,2,4-triazol-5-yl]-N,N-dimethylaniline], the inhibition at 100 µM rises from 22% to 77%.

First: COCCOC(=O)Nc1cccc(-c2nc(-c3ccc(OC)cc3)n[nH]2)c1 [Compound 139, 2-Methoxyethyl {3-[3-(4-methoxyphenyl)-1H-1,2,4-triazol-5-yl]phenyl}carbamate]
Second: O=C(Nc1cccc(-c2c[nH]c(-c3ccc(F)cc3)n2)c1)C(F)(F)F [Compound 54, 2,2,2-Trifluoro-N-{3-[2-(4-fluorophenyl)-1H-imidazol-5-yl]phenyl}acetamide]
The inhibition at 100 µM of the first is lower: 48% for the first, 91% for the second.

First: CSc1ccc(Cl)c(-c2nc(-c3cccc(OC(F)(F)F)c3)no2)c1 [Compound 65, 5-[2-Chloro-5-(methylsulfanyl)phenyl]-3-[3-(trifluoromethoxy)phenyl]-1,2,4-oxadiazole]
Second: O=C(Nc1ccc(F)cc1)Nc1ccc(-c2cc(-c3cccc(OC(F)(F)F)c3)n[nH]2)cc1 [Compound 127, 1-(4-Fluorophenyl)-3-(4-{5-[3-(trifluoromethoxy)phenyl]-1H-pyrazol-3-yl}phenyl)urea]
The inhibition at 100 µM of the first is higher: 31% for the first, 18% for the second.

Going from `Cc1cccc(-c2nc(-c3ccc(Cl)c(Cl)c3)c[nH]2)c1` [Compound 79, 5-(3,4-Dichlorophenyl)-2-(3-methylphenyl)-1H-imidazole] to `Brc1cccc(-c2cc(-c3ccc4nccnc4c3)n[nH]2)c1` [Compound 112, 6-[5-(3-Bromophenyl)-1H-pyrazol-3-yl]quinoxaline], the inhibition at 100 µM falls from 81% to 44%.
